# Experimental data from patent US20030215523A1, “Medicinal compositions for concomitant use as anticancer agent” (priority 2000, published 2003).
# Structures can show the parent of a compound that is named as a salt. Where two headings read alike, the source gives them in different places.
# How the values were obtained:
# [1] = system: Human colon cancer strain Colo320D.M.; assay: Combined use of E7070 and 5-FU in human colon cancer Colo320D.M. xenograft model; settings: for Toxicity Dead/Treated: Colo320D.M. xenograft, nude mice, E7070 30 mg/kg/day QDx5, 5-FU 60 mg/kg/day Q4Dx3
# Text: (§1) J Natl Cancer Inst. Jun. 5, 1996;88(11):747-53; (iii) Effects of growth hormone and testosterone on cortical bone formation and bone density in aged orchiectomized rats. Bone. 1999 May;24(5):491-7).
# [2] = system: Human non-small cell lung cancer LU-99; settings: for Tx4 (days) mean ± S.D.: time in days for tumor size to attain 4 folds of initial tumor size: LU-99 s.c. in nude mice, E7070 25 mg/kg/day i.v. QDx5, CDDP 7.5 mg/kg/day i.v. single dose, + simultaneous (E7070 day 1-5, CDDP day 1), E7070 → CDDP (day 6), CDDP (day 1) → E7070 (day 2-6)
# Text: as §1
# [3] = system: Human colon cancer strain HCT15; settings: for Tx4 (days) mean ± S.D.: time in days for tumor size to attain 4 folds of initial tumor size: HCT15 s.c. in nude mice, E7070 30 mg/kg/day i.v. QDx5 (day 1-5), CPT-11 75 mg/kg/day i.v. Q4Dx3 (day 1, 5, 9); for Toxicity Dead/Treated: HCT15 xenograft, nude mice, E7070 30 mg/kg/day QDx5, CPT-11 75 mg/kg/day Q4Dx3
# Text: as §1
# [4] = system: Human colon cancer strain SW620; assay: Combined use of E7070 and CPT-11 in human colon cancer SW620 xenograft model; settings: for Tx4 (days) mean ± S.D.: time in days for tumor size to attain 4 folds of initial tumor size: SW620 s.c. in nude mice, E7070 25 mg/kg/day i.v. QDx5, CPT-11 62.5 mg/kg/day i.v. Q4Dx3, + simultaneous (E7070 day 1-5, CPT-11 day 1, 5, 9), E7070 → CPT-11 (day 6, 10, 14), CPT-11 → E7070 (day 10-14); for Toxicity mRBW (minimum relative body weight) mean: parentheses: day when RBW was minimal
# Text: as §1
# E7070 alone was intravenously administered once per day for5 days (first to fifth days), while CPT-11 alone was intravenously administered 3 times (once every 4 days, that is, on the first, fifth and ninth days).
# [5] = system: Human colon cancer strain HCT15; assay: Combined use of E7070 and MMC in human colon cancer HCT15 xenograft model; settings: for Tx4 (days) mean ± S.D.: time in days for tumor size to attain 4 folds of initial tumor size: HCT15 s.c. in nude mice, E7070 25 mg/kg/day i.v. QDx5 (day 1-5; combination row prints 30 mg/kg/day), MMC 4.19 mg/kg/day i.v. single dose (day 1); for Toxicity Dead/Treated: HCT15 xenograft, nude mice, E7070 QDx5, MMC 4.19 mg/kg/day QDx1
# Text: as §1
# Human breast cancer HBC4 = assay: Combined use of E7070 and capecitabine in human breast cancer HBC4 xenograft model; format: in vivo
# Text: as §1
# [6] = Further anticancer agents examined for synergistic effect in combined use with E7070; settings: used in the compositions of the invention (with E7070); model and data not given
# [7] = SW620 xenograft, nude mice, E7070 25 mg/kg/day QDx5, CPT-11 62.5 mg/kg/day Q4Dx3
# [8] = LU-99 xenograft, nude mice, E7070 25 mg/kg/day QDx5, CDDP 7.5 mg/kg/day QDx1
# [9] = HBC4 xenograft, nude mice, E7070 30.625 mg/kg/day, capecitabine 1.3125 mmol/kg/day
smiles,measurement,setting,value
"O=c1[nH]cc(F)c(=O)[nH]1 [5-FU, 5-fluoro-2,4-(1H,3H)-pyrimidinedione, reference compound]",Toxicity Dead/Treated,[1],0/6
"N.N.[Cl][Pt][Cl] [CDDP, cis-diamminedichloroplatinum, reference compound]",Tx4 (days) mean ± S.D.: time in days for tumor size to attain 4 folds of initial tumor size,[2],10.7 ± 0.5 days
"CCc1c2c(nc3ccc(OC(=O)N4CCC(N5CCCCC5)CC4)cc13)-c1cc3c(c(=O)n1C2)COC(=O)[C@]3(O)CC [CPT-11, [1,4′-Bipiperidine]-1′-carboxylic acid (S)-4,11-diethyl-3,4,12,14-tetrahydro-4-hydroxy-3,14-dioxo-1H-pyrano-[3′,4′:6,7]-indolizino[1,2-b]quinolin-9-yl ester Hydrochloride trihydrate, reference compound]",Tx4 (days) mean ± S.D.: time in days for tumor size to attain 4 folds of initial tumor size,[3],17.8 ± 1.0 days
same,Toxicity Dead/Treated,[3],0/6
same,Tx4 (days) mean ± S.D.: time in days for tumor size to attain 4 folds of initial tumor size,[4],48.7 ± 29.7 days
same,Toxicity Dead/Treated,[4]; [7],0/6
same,Toxicity mRBW (minimum relative body weight) mean,[4]; [7],0.99(8)
"NS(=O)(=O)c1ccc(S(=O)(=O)Nc2cccc3c(Cl)c[nH]c23)cc1 [E7070, N-(3-chloro-1H-indol-7-yl)-4-sulfamoylbenzenesulfonamide]",Tx4 (days) mean ± S.D.: time in days for tumor size to attain 4 folds of initial tumor size,[3],18.7 ± 2.0 days
same,Toxicity Dead/Treated,[3],0/6
same,Tx4 (days) mean ± S.D.: time in days for tumor size to attain 4 folds of initial tumor size,[2],18.2 ± 2.3 days
same,Toxicity Dead/Treated,[2]; [8],0/6
same,mRTV (minimum relative tumor volume) mean ± S.D.,[2]; [8],0.75 ± 0.16
same,Tx4 (days) mean ± S.D.: time in days for tumor size to attain 4 folds of initial tumor size,[5],12.7 ± 2.2 days
same,Toxicity Dead/Treated,[5],0/6
same,Tx4 (days) mean ± S.D.: time in days for tumor size to attain 4 folds of initial tumor size,[4],30.2 ± 6.1 days
same,Toxicity Dead/Treated,[4]; [7],0/6
same,Toxicity mRBW (minimum relative body weight) mean,[4]; [7],0.98(8)
same,mRTV (minimum relative tumor volume) mean ± S.D.,"[4]; SW620 xenograft, nude mice, E7070 25 mg/kg/day QDx5, CPT-11 62.5 mg/kg/day Q4Dx3, parentheses: day when RTV was minimal",0.76 ± 0.42(12)
same,Tx4 (days) mean ± S.D.: time in days for tumor size to attain 4 folds of initial tumor size,"[1]; Colo320D.M. s.c. in nude mice, E7070 30 mg/kg/day i.v. QDx5, 5-FU 60 mg/kg/day i.v. Q4Dx3, + simultaneous (E7070 day 1-5, 5-FU day 1, 5, 9), E7070 → 5-FU (day 6, 10, 14), 5-FU → E7070 (day 10-14)",11.2 ± 1.9 days
same,Toxicity Dead/Treated,[1],0/6
same,Tx4 (days): time in days for tumor size to attain 4 folds of initial size,"Human breast cancer HBC4; HBC4 s.c. in nude mice, E7070 30.625 mg/kg/day (87.5% MTD) once per day for 5 days, capecitabine 1.3125 mmol/kg/day (87.5% MTD) once per day for 14 days, combination: E7070 day 1-5, capecitabine day 6-19",50.0 ± 8.1 days
same,"CR, complete response: incidence of tumor free mice",Human breast cancer HBC4; [9],0/6
same,"PR, partial response: incidence of tumor regression (more than 50% of tumor regression)",Human breast cancer HBC4; [9],6/6
same,mRTV (minimum relative tumor volume),Human breast cancer HBC4; [9],0.24 ± 0.07
same,T · C,"Human breast cancer HBC4; HBC4 xenograft, Tx4 of treated versus control, E7070 30.625 mg/kg/day, capecitabine 1.3125 mmol/kg/day",28.0 days
"CO[C@@]12[C@H](COC(N)=O)C3=C(C(=O)C(C)=C(N)C3=O)N1C[C@@H]1N[C@@H]12 [MMC, [1aS-(1aα,8β,8aα,8bα)]-6-amino-8-[[(aminocarbonyl)oxy]methyl]1,1a,2,8,8a,8b-hexahydro-8a-methoxy-5-methylazirino[2′,3′:3,4]pyrrolo[1,2-a]indole-4,7-dione, reference compound]",Tx4 (days) mean ± S.D.: time in days for tumor size to attain 4 folds of initial tumor size,[5],16.2 ± 3.4 days
same,Toxicity Dead/Treated,[5],0/6
"COc1cccc2c1C(=O)c1c(O)c3c(c(O)c1C2=O)C[C@@](O)(C(=O)CO)C[C@@H]3O[C@H]1C[C@H](N)[C@H](O)[C@H](C)O1 [doxorubicin, 10-[(3-amino-2,3,6-trideoxy-α-L-1yxo-hexopyranosyl)oxy]-7,8,9,10-tetrahydro-6,8,11-trihydroxy-8-(hydroxyacetyl)-1-methoxy-(8S-cis)-5,12-naphthacenedione]",Antitumor activity when examined for synergistic effect (in words),[6],excellent antitumor activity
"Nc1ccn([C@@H]2O[C@H](CO)[C@@H](O)C2(F)F)c(=O)n1 [gemcitabine hydrochloride, 2′-deoxy-2′,2′-difluoro-cytidine hydrochloride]",Antitumor activity when examined for synergistic effect (in words),[6],excellent antitumor activity
